We go through eight compounds from ChEMBL document CHEMBL2424542, “3-Carboxy-pyrazolinalanine as a new scaffold for developing potent and selective NMDA receptor antagonists” (Eur J Med Chem, 2013).

The structures appear in SMILES notation.

Common to all, as to format: cell membranes, Membrane
Assay [1] can be described thus: Displacement of [3H]KAIN from kainate receptor in rat cortical membranes.
The target in assay [2] is Glutamate NMDA receptor. Nature of the assay: Displacement of [3H]CGP39653 from NMDA receptor in rat cortical membranes.
Assay [3] in a line: Displacement of [3H]AMPA from AMPA receptor in rat cortical membranes.

In the case of `N[C@H](C[C@@H]1CC(C(=O)O)=NN1Cc1ccccc1)C(=O)O` (racemic), the IC50 in assay [1] and in assay [3] was above 100 µM in each case. The compound further displayed a Ki in assay [2] of 9.9 µM.
Take `N[C@H](C[C@@H]1CC(C(=O)O)=NO1)C(=O)O` (racemic): the 50% inhibitory concentration (IC50) in assay [1] and in assay [3] was above 100 µM throughout.
In the case of `N[C@H](C[C@H]1CC(C(=O)O)=NN1c1ccccc1)C(=O)O` (racemic), the half-inhibitory concentration (IC50) in assay [1] and in assay [3] was above 100 µM in each case. In assay [2], the Ki came to 0.026 µM.
With `N[C@H](C[C@H]1CC(C(=O)O)=NN1)C(=O)O` (racemic), the half-maximal inhibitory concentration (IC50) in assay [1] and in assay [3] was above 100 µM in each case. For the same compound, in assay [2], affinity was put at a Ki of 0.17 µM.
With `N[C@H](C[C@H]1CC(C(=O)O)=NO1)C(=O)O` (racemic), the concentration for half-maximal inhibition (IC50) in assay [1] and in assay [3] was above 100 µM throughout.
Turning to `N[C@H](C[C@H]1CC(C(=O)O)=NN1Cc1ccccc1)C(=O)O` (racemic), the IC50 in assay [1] and in assay [3] was above 100 µM in each case. Also, in assay [2], affinity was put at a Ki of 1.4 µM.
For the compound `N[C@H](C[C@@H]1CC(C(=O)O)=NN1c1ccccc1)C(=O)O` (racemic), the IC50 in assay [1] and in assay [3] was above 100 µM each time. This compound also showed a Ki in assay [2] of 0.2 µM.
On to `N[C@H](C[C@@H]1CC(C(=O)O)=NN1)C(=O)O` (racemic), for which the IC50 in assay [1] and in assay [3] was above 100 µM in each case. This compound returned a Ki in assay [2] of 1.7 µM.
